Columns and labels:
[1] = 8-hour time course distribution study in mice (sobetirome in brain, liver, serum after ip administration); format: in vivo; conditions: for AUC0-->t of sobetirome: ip 1.5 μmol/kg, 8 hour time course
Source text: (§1) The single time point pilot study was followed up for 11 and 15 vs. sobetirome with an 8-hour time course distribution study in mice. […] The sobetirome AUC, Cmax, and Tmax values in brain, liver and serum resulting from systemic administration of sobetirome, prodrug 11, and prodrug 15 are shown in Table 1 and the curves used to obtain these values are shown in FIGS. 2A, 2B and 2C.
Animal Studies: Experimental protocols were in compliance with the National Institutes of Health Guide for the Care and Use of Laboratory Animals and approved by the Oregon Health & Science University Institutional Animal Care & Use Committee. Wild type male C57Bl/6 mice, aged 8-10 weeks, were housed in a climate controlled room with a 12 hour light-dark cycle with ad libitum access to food and water. […] Euthanasia was performed on three mice per time points at the following times (0.15 h, 0.5 h, 1 h, 2 h, 4 h, and 8 h) and the tissues and blood were harvested. Tissues were immediately frozen and blood was kept on ice for a minimum of 30 minutes and then spun down at 7,500×G for 15 minutes. Serum (100 uL) was collected and was stored with tissues at −80° C. until samples were processed.
(§2) Serum Processing: The serum samples were warmed to room temperature and 10 μL of 2.99 μM internal standard (D6-Sobetirome) was added to them. Acetonitrile (500 μL) was added and the sample was vortexed for 20 seconds. The sample was then centrifuged at 10,000×G for 15 minutes at 4° C. Next, 90% of the upper supernatant was transferred to a glass test tube and concentrated using a speedvac for 1.5 hours at 45° C. The dried sample was then dissolved in 400 μL of 50:50 ACN:H2O and vortexed for 20 seconds. The resulting mixture was transferred to an Eppendorf and centrifuged at 10,000×G for 15 minutes. The supernatant was filtered with 0.22 μM centrifugal filters and submitted for LC-MS/MS analysis. The standard curve was made with 100 μL of serum from an 8-10 week old mouse not injected with Sobetirome or prodrug. The processing was performed exactly the same except after filtering the sample was split amongst 6 vials. To 5 out of the 6 vials was added Sobetirome to make final concentrations in matrix of (0.1 pg/μL, 1 pg/μL, 10 pg/μL, 100 pg/μL, and 1000 pg/μL).
(§3) Brain Processing: The brain samples were warmed to room temperature and transferred to a homogenizer tube with 5 GoldSpec ⅛ chrome steel balls (Applied Industrial Technologies). The resulting tube was weighed and then 1 mL of H2O was added, followed by 10 μL of 2.99 μM internal standard (D6-sobetirome). The tube was homogenized with a Bead Bug® for 30 seconds and then transferred to a Falcon tube containing 3 mL of ACN. ACN (1 mL) was used to wash homogenizer tube and the solution was transferred back to the Falcon tube. The sample was then processed using the same method for the serum processing except the sample was concentrated in a glass tube using a speedvac for 4 hours at 45° C.
(§4) Liver Processing: The liver samples were warmed to room temperature and transferred to a homogenizer tube with 5 GoldSpec ⅛ chrome steel balls (Applied Industrial Technologies). The resulting tube was weighed and then 1 mL of H2O was added, followed by 10 μL of 2.99 μM internal standard (D6-Sobetirome). The tube was then homogenized with a Bead Bug for 30 seconds. A small sample (100 μL) was then taken from the homogenized mixture and processed. This was done because the liver levels found in some samples were too high for the LC-MS/MS instrument. The samples were then processed using the serum processing method.

[2] = pharmacokinetic study of sobetirome in mice (t1/2); conditions: mouse, in vivo
Source text: as §1

[3] = single time point biodistribution study in mice (brain, liver, serum sobetirome 30 minutes after ip administration, LC-MS/MS); format: in vivo; conditions: for brain sobetirome levels compared to equimolar systemic injection of sobetirome / liver sobetirome levels compared to direct sobetirome injection / serum sobetirome levels compared to direct sobetirome injection: sobetirome measured; for CNS distribution of sobetirome (in words): ip administration of prodrug, versus sobetirome
Experimental: A biodistribution study in mice was performed on each prodrug to determine the brain, liver, and serum levels of sobetirome following a systemic (intraperitoneal) administration. The mice received an equimolar dose (1.5 μmol/kg) of prodrug and one cohort received the same dose of sobetirome as a control. Tissue and blood were collected 30 minutes post-injection and the concentration of sobetirome was determined using an LC-MS/MS. […] The brain/liver sobetirome ratio was increased compared to sobetirome injection by 5- and 10-fold for 11 and 15, respectively (FIG. 1C)
Animal Studies: Experimental protocols were in compliance with the National Institutes of Health Guide for the Care and Use of Laboratory Animals and approved by the Oregon Health & Science University Institutional Animal Care & Use Committee. Wild type male C57Bl/6 mice, aged 8-10 weeks, were housed in a climate controlled room with a 12 hour light-dark cycle with ad libitum access to food and water. Mice were injected once intraperitoneally (IP) with sobetirome and prodrugs at 3.05 μmol/kg. Euthanasia was performed on three mice per time points at the following times (0.15 h, 0.5 h, 1 h, 2 h, 4 h, and 8 h) and the tissues and blood were harvested. Tissues were immediately frozen and blood was kept on ice for a minimum of 30 minutes and then spun down at 7,500×G for 15 minutes. Serum (100 uL) was collected and was stored with tissues at −80° C. until samples were processed.
as §2, §3, §4

[4] = male, C57Bl/6, mouse, in vivo, ip
[5] = ip 1.5 μmol/kg, 30 minutes post-injection

In the case of `Cc1cc(OCC(=O)O)cc(C)c1Cc1ccc(O)c(C(C)C)c1` [Sobetirome], the “AUC0-->t of sobetirome” value ([1]; mouse brain) is reported as 10.8 ng·h/g, the “AUC0-->t of sobetirome” value ([1]; mouse liver) is reported as 293 ng·h/g and the “AUC0-->t of sobetirome” value ([1]; mouse serum) is reported as 68.2 ng·h/g. The half-life [2] was 1.5 h.

For `Cc1cc(OCC(=O)OC2CNC2)cc(C)c1Cc1ccc(O)c(C(C)C)c1` [Compound 15, azetidin-3-yl 2-(4-{[4-hydroxy-3-(propan-2-yl)phenyl]methyl}-3,5-dimethylphenoxy)acetate], the “Sobetirome Distribution AUCbrain/AUCliver” value [1, 4] was 0.20, the “Sobetirome Distribution AUCbrain/AUCserum” value [1, 4] was 1.3 and the “brain/serum ratio of sobetirome based on AUC” value [1, 4] was 1.31. For the same compound, the “sobetirome exposure in brain compared to direct sobetirome injection” value ([1]; mouse, in vivo) was “increased sobetirome exposure”, the “sobetirome exposure in liver compared to direct sobetirome injection” value ([1]; mouse, in vivo) was “decreased sobetirome exposure” and the “sobetirome exposure in serum compared to direct sobetirome injection” value ([1]; mouse, in vivo) was “decreased sobetirome exposure”. For the same compound, the “CNS distribution properties compared to 11” value ([1]; mouse, in vivo, ip) was “superior CNS distribution properties”, the “increase in sobetirome AUC(brain)/AUC(liver) relative to sobetirome” value ([1]; mouse, in vivo, ip) was “five-fold increase” and the “time to reach Cmax” value ([1]; mouse, in vivo, ip) was 1 h. For the same compound, the “brain sobetirome levels compared to equimolar systemic injection of sobetirome” value [3, 5] was “significant brain sobetirome level increases”, the “liver sobetirome levels compared to direct sobetirome injection” value [3, 5] was “significantly lower” and the “serum sobetirome levels compared to direct sobetirome injection” value [3, 5] was “significantly lower”. For the same compound, the “CNS distribution of sobetirome (in words)” value [3] was “improved CNS distribution”.

With `Cc1cc(OCC(=O)OCCN)cc(C)c1Cc1ccc(O)c(C(C)C)c1.Cl` [Compound 11, GC1-ethanolamine] the “sobetirome exposure in brain compared to direct sobetirome injection” value ([1]; mice, full time course) was “increased sobetirome exposure”, the “sobetirome exposure in liver compared to direct sobetirome injection” value ([1]; mice, full time course) was “decreased sobetirome exposure” and the “sobetirome exposure in serum compared to direct sobetirome injection” value ([1]; mice, full time course) was “decreased sobetirome exposure”. The “brain sobetirome levels compared to equimolar systemic injection of sobetirome” value [3, 5] was “significant brain sobetirome level increases”, the “liver sobetirome levels compared to direct sobetirome injection” value [3, 5] was “significantly lower” and the “serum sobetirome levels compared to direct sobetirome injection” value [3, 5] was “significantly lower”. For the same compound, the “CNS distribution of sobetirome (in words)” value [3] was “improved CNS distribution”.

With `Cc1cc(OCC(=O)OCCN2CCOCC2)cc(C)c1Cc1ccc(O)c(C(C)C)c1` [Compound 9, 2-(morpholin-4-yl)ethyl 2-(4-{[4-hydroxy-3-(propan-2-yl)phenyl]methyl}-3,5-dimethylphenoxy)acetate] the “brain/serum ratio of sobetirome (in words)” value [3, 5] was “did not significantly increase” and the “brain sobetirome levels compared to equimolar systemic injection of sobetirome” value [3, 5] was “did not significantly increase”.

In the case of `Cc1cc(OCC(=O)OCC[N+](C)(C)C)cc(C)c1Cc1ccc(O)c(C(C)C)c1.[Br-]` [Compound 8, 2-(trimethylamino)ethyl 2-(4-{[4-hydroxy-3-(propan-2-yl)phenyl]methyl}-3,5-dimethylphenoxy)acetate hydrobromide], the “CNS distribution of sobetirome (in words)” value [3] is reported as “did not improve CNS distribution of sobetirome”.
